In ChEMBL document CHEMBL1201862, “PubChem BioAssay data set” (2004):
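Step 1: Grow cells in 96-well plates. Step 2: Expose to compound for 48 hours at 5 concentrations. Step 3: Interpolate endpoints linearly; if unreached, use highest concentration. GI50 is the concentration that inhibits growth by half.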 Activity calls are given as the source filed them. Cut-off read from the data, not from the text of the source: active = GI50 up to about 1.1 µM and inactive = higher.

Experiments:
Assay in all cases: growth of human tumour cells (NCI), 48 h
HL-60 = tested on: HL-60
HCT-116 = tested on: HCT-116
OVCAR-5 = tested on: OVCAR-5
MOLT-4 = tested on: MOLT-4
UACC-257 = tested on: UACC-257
OVCAR-4 = tested on: OVCAR-4
COLO 205 = tested on: COLO 205
OVCAR-8 = tested on: OVCAR-8
XF498 = tested on: XF498
HCT-15 = tested on: HCT-15
SN12C = tested on: SN12C
SF-539 = tested on: SF-539
SR = tested on: SR
BT-549 = tested on: BT-549
KM12 = tested on: KM12
MCF7 = tested on: MCF7
NCI-H226 = tested on: NCI-H226
EKVX = tested on: EKVX
CCRF-CEM = tested on: CCRF-CEM
PC-3 = tested on: PC-3

Structure (SMILES)	GI50 (HL-60)	GI50 (HCT-116)	GI50 (OVCAR-5)	GI50 (MOLT-4)	GI50 (UACC-257)	GI50 (OVCAR-4)	GI50 (COLO 205)	GI50 (OVCAR-8)	GI50 (XF498)	GI50 (HCT-15)	GI50 (SN12C)	GI50 (SF-539)	GI50 (SR)	GI50 (BT-549)	GI50 (KM12)	GI50 (MCF7)	GI50 (NCI-H226)	GI50 (EKVX)	GI50 (CCRF-CEM)	GI50 (PC-3)
O=C(Nc1cccc(C(F)(F)F)c1)C(=O)C(C(=O)c1ccc2ccccc2c1)C1OC(=O)c2ccccc21 (configuration not stated)	7.69 µM (inactive)	6.82 µM (inactive)	14.3 µM (inactive)	1.82 µM (inactive)	11.5 µM (inactive)	9.12 µM (inactive)	10.9 µM (inactive)	6.35 µM (inactive)	0.887 µM (active)	8.13 µM	13.2 µM (inactive)	2.23 µM (inactive)	3.24 µM (inactive)	14.3 µM (inactive)	12.2 µM (inactive)	7.16 µM (inactive)	2.89 µM (inactive)	14.5 µM (inactive)	3.18 µM (inactive)	–
O=c1oc(=O)c2oc3ccccc3oc1=2	> 100 µM (inactive)	> 100 µM (inactive)	> 100 µM (inactive)	> 100 µM (inactive)	> 100 µM (inactive)	> 100 µM (inactive)	> 100 µM (inactive)	> 100 µM (inactive)	> 100 µM (inactive)	> 100 µM	> 100 µM (inactive)	> 100 µM (inactive)	> 100 µM (inactive)	–	> 100 µM (inactive)	–	> 100 µM (inactive)	> 100 µM (inactive)	> 100 µM (inactive)	–
CC(C)c1cccc(C(C)C)c1/N=C(/N)C#N	26.7 µM (inactive)	> 44.6 µM (inactive)	> 100 µM (inactive)	> 45.9 µM (inactive)	> 46.6 µM (inactive)	> 100 µM (inactive)	40.6 µM (inactive)	> 100 µM (inactive)	> 100 µM (inactive)	37.2 µM	> 100 µM (inactive)	22.8 µM (inactive)	46.2 µM (inactive)	–	> 56 µM (inactive)	–	> 100 µM (inactive)	> 100 µM (inactive)	30.5 µM (inactive)	–
FC(F)(F)c1cccc(/C=N/C23CC4CC(CC(C4)C2)C3)c1	> 100 µM (inactive)	> 100 µM (inactive)	> 100 µM (inactive)	> 100 µM (inactive)	> 100 µM (inactive)	> 100 µM (inactive)	> 100 µM (inactive)	> 100 µM (inactive)	> 100 µM (inactive)	> 100 µM	> 100 µM (inactive)	> 100 µM (inactive)	> 100 µM (inactive)	–	> 100 µM (inactive)	–	> 100 µM (inactive)	> 100 µM (inactive)	–	–
C[C@@H]1[C@@H]2[C@@H](C=C3C4CCC5Cc6nc7c(nc6C[C@@]5(C)C4C[C@H](O)[C@]32CO)CC2CCC3C4=C[C@H]5O[C@@]6(OC(C)(CO)C[C@@H]6O)[C@H](C)[C@@]5(O)[C@]4(C)[C@@H](O)CC3[C@]2(C)C7)O[C@]12CCC(C)(C)O2 (some centres not stated)	0.00692 µM (active)	0.0306 µM (active)	0.488 µM (active)	0.00505 µM (active)	0.0668 µM (active)	0.959 µM (active)	0.0809 µM (active)	0.425 µM (active)	0.00507 µM (active)	0.135 µM	0.904 µM (active)	0.000764 µM (active)	0.00255 µM (active)	–	0.057 µM (active)	0.00075 µM (active)	0.0225 µM (active)	0.0766 µM (active)	0.0117 µM (active)	–
c1cnc2c(c1)-n1cccc1C1(CCCCC1)NN2	93.8 µM (inactive)	59.8 µM (inactive)	> 100 µM (inactive)	24.5 µM (inactive)	48.4 µM (inactive)	> 100 µM (inactive)	> 100 µM (inactive)	> 100 µM (inactive)	74.3 µM (inactive)	37.4 µM	> 100 µM (inactive)	> 100 µM (inactive)	40 µM (inactive)	–	99.1 µM (inactive)	–	> 100 µM (inactive)	82.2 µM (inactive)	41.5 µM (inactive)	–
Cc1ccc(S(=O)(=O)c2c(N)n(CCN(C)C)c3nc4ccccc4nc23)cc1	> 100 µM (inactive)	> 100 µM (inactive)	> 100 µM (inactive)	> 100 µM (inactive)	71.9 µM (inactive)	> 100 µM (inactive)	> 100 µM (inactive)	> 100 µM (inactive)	> 100 µM (inactive)	> 100 µM	> 100 µM (inactive)	> 100 µM (inactive)	–	–	45.1 µM (inactive)	–	> 100 µM (inactive)	> 100 µM (inactive)	96.6 µM (inactive)	–
CNC(=O)OCc1nc(SC2CCCCO2)n(C)c1COC(=O)NC (configuration not stated)	> 100 µM (inactive)	> 100 µM (inactive)	> 100 µM (inactive)	> 100 µM (inactive)	> 100 µM (inactive)	> 100 µM (inactive)	> 100 µM (inactive)	> 100 µM (inactive)	> 100 µM (inactive)	> 100 µM	> 100 µM (inactive)	> 100 µM (inactive)	> 100 µM (inactive)	–	> 100 µM (inactive)	> 100 µM (inactive)	> 100 µM (inactive)	> 100 µM (inactive)	> 100 µM (inactive)	–
COC(=O)C(CCC#N)(CCC#N)C(=O)OC	> 100 µM (inactive)	> 100 µM (inactive)	–	> 100 µM (inactive)	> 100 µM (inactive)	–	> 100 µM (inactive)	> 100 µM (inactive)	> 100 µM (inactive)	> 100 µM	> 100 µM (inactive)	> 100 µM (inactive)	> 100 µM (inactive)	–	> 100 µM (inactive)	–	> 100 µM (inactive)	> 100 µM (inactive)	> 100 µM (inactive)	–
Cc1cc2c(s1)C(=O)c1sccc1C2=O	3.34 µM (inactive)	0.998 µM (active)	1.86 µM (inactive)	2.3 µM (inactive)	0.194 µM (active)	0.561 µM (active)	1.9 µM (inactive)	0.424 µM (active)	1.55 µM (inactive)	1.19 µM	0.388 µM (active)	0.248 µM (active)	3.01 µM (inactive)	–	1.63 µM (inactive)	1.26 µM (inactive)	1.76 µM (inactive)	1.84 µM (inactive)	–	0.942 µM (active)
CC(=O)O[C@H]1C(N(C)C(=O)c2ccccc2)CC[C@]2(C)C3CC[C@@]4(C)C(CC(O)[C@@H]4C(C)N(C)C)[C@@H]3CCC12 (some centres not stated)	89.5 µM (inactive)	> 100 µM (inactive)	> 100 µM (inactive)	> 100 µM (inactive)	> 100 µM (inactive)	> 100 µM (inactive)	> 100 µM (inactive)	> 100 µM (inactive)	> 100 µM (inactive)	> 100 µM	> 100 µM (inactive)	> 100 µM (inactive)	76.9 µM (inactive)	–	> 100 µM (inactive)	–	> 100 µM (inactive)	> 100 µM (inactive)	> 100 µM (inactive)	–
Nc1c(-c2ccc(Cl)cc2Cl)[n+]([O-])c2ccccc2[n+]1[O-]	> 100 µM (inactive)	–	> 100 µM (inactive)	> 100 µM (inactive)	> 100 µM (inactive)	> 100 µM (inactive)	> 100 µM (inactive)	> 100 µM (inactive)	> 100 µM (inactive)	> 100 µM	> 100 µM (inactive)	> 100 µM (inactive)	–	–	> 100 µM (inactive)	–	> 100 µM (inactive)	> 100 µM (inactive)	> 100 µM (inactive)	–
CCN(CC)CCn1c2ccccc2c(=O)c2c(O)ccc(O)c21	6.49 µM (inactive)	31.1 µM (inactive)	55.7 µM (inactive)	18.5 µM (inactive)	36.9 µM (inactive)	17.3 µM (inactive)	20.6 µM (inactive)	19.6 µM (inactive)	21.6 µM (inactive)	33.8 µM	30.8 µM (inactive)	33.8 µM (inactive)	12.4 µM (inactive)	22.5 µM (inactive)	49.2 µM (inactive)	18.8 µM (inactive)	53.6 µM (inactive)	> 46.5 µM (inactive)	11 µM (inactive)	24.5 µM (inactive)
C=CCNC(=O)NCCCC(NC(C)=O)C(=O)NCc1ccccc1 (configuration not stated)	> 100 µM (inactive)	–	> 100 µM (inactive)	> 100 µM (inactive)	> 100 µM (inactive)	> 100 µM (inactive)	> 100 µM (inactive)	> 100 µM (inactive)	> 100 µM (inactive)	> 100 µM	> 100 µM (inactive)	> 100 µM (inactive)	–	–	> 100 µM (inactive)	–	> 100 µM (inactive)	> 100 µM (inactive)	> 100 µM (inactive)	–
OCCCNc1ccnc2cc(Cl)ccc12	> 100 µM (inactive)	57.9 µM (inactive)	> 100 µM (inactive)	> 100 µM (inactive)	> 100 µM (inactive)	> 100 µM (inactive)	> 100 µM (inactive)	> 100 µM (inactive)	> 100 µM (inactive)	> 100 µM	> 100 µM (inactive)	> 100 µM (inactive)	> 100 µM (inactive)	–	> 100 µM (inactive)	–	61.9 µM (inactive)	> 100 µM (inactive)	> 100 µM (inactive)	–
CCOC(=O)c1sc2c(sc(=O)n2-c2ccccc2)c1O	> 100 µM (inactive)	> 100 µM (inactive)	> 100 µM (inactive)	> 100 µM (inactive)	> 100 µM (inactive)	> 100 µM (inactive)	45.3 µM (inactive)	> 100 µM (inactive)	> 100 µM (inactive)	> 100 µM	> 100 µM (inactive)	> 100 µM (inactive)	67.6 µM (inactive)	–	> 100 µM (inactive)	–	> 100 µM (inactive)	> 100 µM (inactive)	45 µM (inactive)	–
